84 compounds from PubChem BioAssay AID602211 (Sanford-Burnham Center for Chemical Genomics, 2012) can be followed below.

The source made the active and inactive calls.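 The calls were made as follows: active = mean IC50 at or below 10 µM; inactive = the rest.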

In this assay the test system is H9c2 cardiomyocytes, H2O2 protection, ATPLite viability, 2 h. As to the kind of experiment: H2O2-induced H9c2 cell death suppression – ATPLite luminescence, set 2, dose response (AID 602211;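 also: potency is for protection so actives keep ATP signal up against peroxide killing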). (Cellular ATP, detected with luciferase, serves as a proxy for viable cell number.)
One may read the IC50 as the concentration at which inhibition is half-maximal. As to `COC(=O)c1cc(C(=O)OCC(=O)N2c3ccccc3NC(=O)C2(C)C)cc([N+](=O)[O-])c1`, the IC50 is 6.28 µM.

As for `COc1cc(NC(=O)c2ccco2)c(C(=O)OCC(=O)c2c[nH]c3ccccc23)cc1OC`, the IC50 is > 79 µM (inactive).

In the case of `COc1cc(/C=C/c2nc3ccccc3c(=O)n2-c2ccc(O)cc2)ccc1O`, the IC50 was 3.01 µM.

For `O=CNc1cc(-c2ccc(C(=O)NC3CC3)cc2)cn2c(-c3ccccc3)cnc12`, the IC50 is 10.3 µM (inactive).

Regarding `COc1cccc(-c2cnc3c(NC=O)cc(-c4ccc(O)c(OC)c4)cn23)c1`, the IC50 was 5.89 µM.

In the case of `O=C(CNC(=O)c1nc[nH]c1C(=O)NCC(=O)OCc1ccccc1)OCc1ccccc1`, the 50% inhibitory concentration (IC50) was 0.38 µM.

For `O=C(COc1cccc(NC(=O)c2cccc([N+](=O)[O-])c2)c1)c1ccc(F)cc1`, the IC50 was 9.26 µM.

For `CCCCCCn1c(C)nc2c(c1=O)c1nc3ccccc3nc1n2/N=C/c1ccco1`, the IC50 is 4.85 µM.

For `COc1cc(NC(=O)c2ccc(-c3cn[nH]c3)c3ccoc23)cc(OC)c1OC`, the IC50 is 3.24 µM.

`Cn1c(=O)n(CCc2ccccc2)c(=O)c2c1nc1n2CCCN1Cc1ccccc1`: the IC50 was > 79 µM (inactive).

With `CC(=O)Nc1cc(-c2cccc(C(=O)N(C)C)c2)cn2c(-c3ccc(C(C)=O)cc3)cnc12`, the IC50 is 7.78 µM.

As for `CCN1C(=O)/C(=C/c2nc3ccccc3c(=O)[nH]2)c2ccccc21`, the half-maximal inhibitory concentration (IC50) is 7.84 µM.

Regarding `COc1cccc(-c2cnc3c(NC=O)cc(-c4cccc(C(=O)N(C)C)c4)cn23)c1`, the IC50 is 12.6 µM (inactive).

In the case of `COc1cc(-c2cc(NC(C)=O)c3ncc(-c4ccc(F)cc4)n3c2)cc(OC)c1OC`, the IC50 was > 79 µM (inactive).

Consider `CCCC(=O)Nc1nc2ccc(NC(=O)c3ccc(Br)o3)cc2s1`, for which the IC50 was 15.2 µM (inactive).

As to `O=C/C(=C\Nc1ccccn1)c1nc2cc(Cl)ccc2o1`, the IC50 is 9.92 µM.

With `CCOC(=O)c1ccccc1OCc1cc(/C=N/NC(=O)c2cccnc2)ccc1OC`, the IC50 is > 79 µM (inactive).

On to `COC(=O)c1ccccc1NC(=O)/C=C/c1cc(OC)c(OC)c(OC)c1`, for which the IC50 is 10.9 µM (inactive).

In the case of `O=C(Nc1nc(-c2ccccn2)cs1)c1ccc(-c2ccccc2F)o1`, the IC50 was 3 µM.

On to `COc1cc(-c2cnc3c(NC=O)cc(-c4cccnc4)cn23)cc(OC)c1OC`, for which the IC50 was 24.6 µM (inactive).

In the case of `COc1ccc(Cl)cc1-c1nc(-c2ccc(NC(=O)c3cccs3)cc2)no1`, the IC50 was > 79 µM (inactive).

`COc1cc(NC(=O)c2c(OC)cccc2OC)ccc1NC(=O)c1cc2ccccc2o1`: the IC50 is 15.1 µM (inactive).

Consider `O=C1OCCN1C(=O)[C@H]1[C@H](c2ccc([N+](=O)[O-])cc2)C(c2ccc(F)cc2)=NN1c1ccc(Br)cc1`, for which the IC50 is 3.09 µM.

Turning to `COc1cc2c(C#CCCCO)c(-c3ccsc3)oc(=O)c2cc1OC`, the IC50 is 2.3 µM.

As for `Cc1c(O)ccc2c(-c3ccccc3)cc(=O)oc12`, the IC50 was > 79 µM (inactive).

As to `COc1ccc(CCn2c(=O)c3cccnc3n(Cc3ccc([N+](=O)[O-])cc3)c2=O)cc1OC`, the IC50 was 1.22 µM.

In the case of `COc1ccc(-c2cc(NC=O)c3ncc(-c4ccccc4)n3c2)cc1OC`, the IC50 is > 79 µM (inactive).

Take `Cn1c2ccccc2c2cc(/C=N/NC(=O)c3cc(O)ccc3O)ccc21`: the IC50 was > 79 µM (inactive).

`COc1cc(/C=C(\C#N)C(=O)Nc2ccccc2F)ccc1OCCN1CCOCC1`: the IC50 was 15.9 µM (inactive).

Regarding `O=C(C[C@H]1C/C=C\CC[C@H](Cc2ccc(F)cc2)C(=O)O[C@H](c2ccccc2)CNC1=O)N[C@H](CO)Cc1ccccc1`, the IC50 was > 79 µM (inactive).

With `CCOc1cc(-c2cc(-c3ccc(N)cc3)nc(N)c2C#N)ccc1O`, the IC50 is 5.99 µM.

On to `OC1CCN(c2c3c(nc4cc(-c5cccc(F)c5)nn24)CCCC3)CC1`, for which the IC50 was 6.02 µM.

Regarding `CCOc1cccc(-c2nn3c(-c4ccccn4)nnc3s2)c1`, the IC50 is 6.55 µM.

Consider `CCOC(=O)C1CCN(c2cc3c(cc2NC(=O)c2ccc(F)cc2)n(C)c(=O)n3C)CC1`, for which the IC50 is 25.8 µM (inactive).

As for `Cc1ccc2cc3c(NC(=O)c4cccnc4)nn(C)c3nc2c1`, the IC50 is 15.9 µM (inactive).

Turning to `COc1cc(/C=C/c2nc(-c3ccccc3O)n[nH]2)cc(OC)c1OC`, the IC50 is > 79 µM (inactive).

Consider `C[C@H](CO)N1C[C@H](C)[C@@H](CN(C)S(=O)(=O)c2ccc(F)cc2)Oc2ccc(NC(=O)Nc3ccc4c(c3)OCO4)cc2C1=O`, for which the IC50 is 10.1 µM (inactive).

On to `CCCn1nc(C(=O)Nc2nc(-c3ccccn3)cs2)c2ccccc2c1=O`, for which the IC50 is 3.37 µM.

For `C[C@H](CO)N1C[C@H](C)[C@@H](CN(C)S(=O)(=O)c2cccs2)Oc2ccc(NC(=O)Nc3ccccc3)cc2C1=O`, the IC50 is 16 µM (inactive).

Turning to `CCn1nc(C(=O)Nc2nc(-c3ccccn3)cs2)c2ccccc2c1=O`, the half-inhibitory concentration (IC50) was 3.37 µM.

On to `Cc1cc(NC(=O)c2cccs2)cc(-c2nc3ncccc3o2)c1O`, for which the 50% inhibitory concentration (IC50) was 3.76 µM.

`O=C(CN1C(=O)C2C3C=CC(C3)C2C1=O)Nc1nc(-c2ccccn2)cs1` (centres undefined): the IC50 was 21.1 µM (inactive).

`COc1cc(/C=c2\s/c(=C(/C#N)C(=O)N3CCCC3)n(-c3ccccc3)c2=O)ccc1O`: the IC50 is 3.2 µM.

In the case of `O=c1c2ccccc2nc2c3ccccc3c(NCCO)nn12`, the IC50 was 20.3 µM (inactive).

In the case of `CC1CN(c2nn3c(=O)c4ccccc4nc3c3ccccc23)CC(C)O1` (centres undefined), the IC50 was 32.5 µM (inactive).

As for `Cc1cc(N)n(-c2nc(-c3cccnc3)nc3ccccc23)n1`, the IC50 was 16.2 µM (inactive).

For `O=C(CNC(=O)c1nc[nH]c1C(=O)NCc1ccccc1)OCc1ccccc1`, the IC50 was > 79 µM (inactive).

As to `COc1ccc(-c2ccc3c(c2)S(=O)(=O)c2cccc(C(=O)N4CCN(c5c(Cl)cncc5Cl)CC4)c2C3=O)cc1OC`, the IC50 is 4.27 µM.

As to `Cc1c(/C=N/NC(=O)c2ccc(O)cc2)c2ccccn2c1C(=O)c1ccc(F)cc1`, the IC50 is 5.2 µM.

Consider `O=C(O)c1ccc2c(c1)S(=O)(=O)c1cc(N3CCN(c4cnccn4)CC3)ccc1C2=O`, for which the IC50 is > 79 µM (inactive).

For `COc1cccc(CN2CCN(C(=O)c3cc(-c4cccnc4)nc4ccc(C)cc34)CC2)c1`, the IC50 is 22.9 µM (inactive).

For the compound `COc1cccc(C(=O)CSc2nnc(-c3cc(OC)c(OC)c(OC)c3)o2)c1`, the IC50 is > 79 µM (inactive).

With `COc1cc(-c2cc(C(=O)OCC(=O)NC3CC3)c3ccccc3n2)cc(OC)c1OC`, the IC50 was 3.98 µM.

Turning to `CCOc1ccc2[nH]c(=O)c(CN(Cc3nnnn3Cc3ccco3)C3CCCCC3)cc2c1`, the IC50 is > 79 µM (inactive).

With `COc1ccc(C(=O)Nc2cccc(NC(=O)c3ccc(OC)c(OC)c3)n2)cc1OC`, the concentration for half-maximal inhibition (IC50) was 1.49 µM.

For `COc1ccc(-n2cc(-c3ccccc3)c3c(N4CCOCC4)ncnc32)cc1`, the IC50 is 4.02 µM.

Take `CCOCCn1ccc2c(OCC(=O)Nc3cc(OC)ccc3OC)cccc2c1=O`: the IC50 was 5.23 µM.

For the compound `CCOC(=O)c1c2c3c(cccc3n(C)c1=O)C(=O)c1ccccc1-2`, the IC50 was 10.1 µM (inactive).

Regarding `CCN(CC)C(=O)c1ccc(-c2nnc(Nc3ccc(O)cc3)c3ccccc23)cc1`, the IC50 was 17.6 µM (inactive).

With `COc1ccc(C=NNc2nc3c([nH]2)c(=O)n(C)c(=O)n3C)cc1`, the IC50 was 5.8 µM.

For `CC(C)CC(C(=O)NC1CCCCC1)N(Cc1cccs1)C(=O)c1snc(C(N)=O)c1N` (centres undefined), the IC50 is 10.2 µM (inactive).

On to `COc1cccc(C(=O)Nc2c(C(N)=O)oc3ccccc23)c1`, for which the IC50 is 8.36 µM.

For the compound `Cc1nc2c(c(=O)n1CCC1=CCCCC1)c1nc3ccccc3nc1n2/N=C/c1ccccc1`, the IC50 was 10.5 µM (inactive).

Turning to `Cc1cccc(NC(=O)c2nc[nH]c2C(=O)NCC(=O)OCc2ccccc2)c1`, the IC50 was 3.54 µM.

Regarding `COc1cc(/C=C/c2nc3ccccc3c(=O)n2-c2ccccc2O)ccc1O`, the IC50 is 9.9 µM.

For `O=C(Nc1cccc2cccnc12)c1ccc2sc([C@H]3C[C@H](O)[C@@H](CO)O3)nc2c1`, the IC50 was 4.33 µM.

In the case of `O=C(NCC(=O)N(Cc1cccs1)C(C(=O)NC1CCCCC1)c1ccco1)c1cccs1` (centres undefined), the 50% inhibitory concentration (IC50) is 3.23 µM.

Turning to `COc1cc(CCNc2ccc3nnc(-c4ccccc4)n3n2)cc(OC)c1OC`, the IC50 was 9.52 µM.

Regarding `CCOC(=O)C1CCCN(C(=O)CCC(=O)Nc2ccc3nc(N4CCOCC4)cc(C)c3c2)C1` (centres undefined), the IC50 is > 79 µM (inactive).

Take `COc1cc(C(=O)N/N=C/c2ccc(OC(=O)c3ccccc3)c(OC)c2)ccc1O`: the IC50 was 6.65 µM.

As for `COc1ccc(OC)c(/C=N/NC(=O)c2cc3c(OC)c(OC)ccc3[nH]2)c1`, the IC50 was 3.48 µM.

For `CCN(C[C@H]1N[C@@](C)(C(=O)OC)[C@H]2C(=O)N(Cc3ccccc3)C(=O)[C@@H]12)C(=O)c1ccc(C(C)(C)C)cc1`, the IC50 was 6.25 µM.

Turning to `Cc1cc(C)c2c(N)c(C(=O)N/N=C/c3cccnc3)sc2n1`, the IC50 was 12.1 µM (inactive).

With `O=C(Nc1ccc2nc(N3CCOCC3)sc2c1)c1cc2ccccc2o1`, the IC50 was 4.75 µM.

As to `COc1ccccc1OCC(=O)Nc1cccc(-c2nnc(-c3ccco3)o2)c1`, the IC50 was > 79 µM (inactive).

`COCCN1Cc2cccc(C(=O)Nc3cccc(-c4nc5ccccc5[nH]4)c3)c2C1=O`: the IC50 was 3.91 µM.

For the compound `COC(=O)c1cc(NC(=O)c2cc3ccccc3o2)cc(C(=O)OC)c1`, the IC50 is 5.42 µM.

As for `O=C(N/N=C/c1ccncc1)c1ccc(COc2cccc3cccnc23)cc1`, the IC50 is 25.3 µM (inactive).

Regarding `Cc1ccc(Cn2c(CCNc3nc(-c4ccc(Cl)c([N+](=O)[O-])c4)cs3)nc3cc(C(=O)NCCCO)ccc32)cc1`, the half-maximal inhibitory concentration (IC50) was 1.48 µM.

On to `C=CCn1cnc2c(c1=O)c1nc3ccccc3nc1n2/N=C/c1cc(OC)c(OC)c(OC)c1`, for which the IC50 was 1.09 µM.

With `CCOC(=O)c1cccc(Nc2nc(-c3cccnc3)nc3ccccc23)c1`, the IC50 was > 79 µM (inactive).

With `N#C/C(=C\c1cn(-c2ccccc2)nc1-c1cccnc1)c1nnc2n1CCCCC2`, the IC50 is 13.7 µM (inactive).

In the case of `NC(=O)c1oc2ccccc2c1NC(=O)c1ccco1`, the IC50 was 21.4 µM (inactive).

For the compound `COc1cc(/C=N/NC(=O)c2cccnc2)ccc1OCC(=O)Nc1ccccc1Cl`, the IC50 is 1.78 µM.
